Measurements from ChEMBL document CHEMBL1201862, “PubChem BioAssay data set” (2004).
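Dose response: 5 concentrations. Exposure: 48 h. Format: 96-well plates. Endpoint: linear interpolation; highest concentration if not reached. The concentration for 50% growth inhibition is given as GI50.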 Activity calls are given as the source filed them. No stated cut-off is given here; in the data, active = GI50 up to about 1.1 µM and inactive = higher.

Tests used:
Test in all cases: NCI-60 cell line screen, 48 h
A498 = tested on: A498
A549 = tested on: A549
ACHN = tested on: ACHN
BT-549 = tested on: BT-549
EKVX = tested on: EKVX
HOP-62 = tested on: HOP-62
MDA-N = tested on: MDA-N
NCI-H23 = tested on: NCI-H23
NCI-H460 = tested on: NCI-H460
OVCAR-3 = tested on: OVCAR-3
SF-268 = tested on: SF-268
SK-MEL-28 = tested on: SK-MEL-28
SK-OV-3 = tested on: SK-OV-3
SN12C = tested on: SN12C
SNB-19 = tested on: SNB-19
SR = tested on: SR
T47D = tested on: T47D
UACC-257 = tested on: UACC-257
UACC-62 = tested on: UACC-62

Measured: GI50

O=C(O)c1cccc(SSc2cccc(C(=O)O)c2)c1
inactive: A498 > 100 µM | A549 > 100 µM | ACHN > 100 µM | BT-549 > 100 µM | EKVX > 100 µM | HOP-62 > 100 µM | MDA-N > 100 µM | NCI-H23 > 100 µM | NCI-H460 > 100 µM | OVCAR-3 > 100 µM | SF-268 > 100 µM | SK-MEL-28 > 100 µM | SK-OV-3 > 100 µM | SN12C > 100 µM | SNB-19 > 100 µM | SR > 100 µM | T47D > 100 µM | UACC-257 > 100 µM | UACC-62 > 100 µM

FC(F)(F)c1n[nH]c(SCc2ccc(Cl)cc2)n1
inactive: A498 > 100 µM | A549 > 100 µM | ACHN > 100 µM | BT-549 > 100 µM | EKVX > 100 µM | HOP-62 > 100 µM | MDA-N > 100 µM | NCI-H23 > 100 µM | NCI-H460 > 100 µM | OVCAR-3 > 100 µM | SF-268 > 100 µM | SK-MEL-28 > 100 µM | SK-OV-3 > 100 µM | SN12C > 100 µM | SNB-19 > 100 µM | SR > 100 µM | T47D > 100 µM | UACC-257 > 100 µM | UACC-62 > 100 µM

O=S(=O)(/N=C(\NO)Nc1ccc(Cl)cc1)C1CC=C(c2ccon2)S1 (stereo not given)
inactive: A498 7.24 µM | A549 32.1 µM | ACHN 13 µM | BT-549 12.3 µM | EKVX 31 µM | HOP-62 40.5 µM | MDA-N 6.04 µM | NCI-H23 13.2 µM | NCI-H460 16 µM | OVCAR-3 22.5 µM | SF-268 14.7 µM | SK-MEL-28 23.5 µM | SK-OV-3 > 100 µM | SN12C 18.2 µM | SNB-19 30.1 µM | SR 2.3 µM | T47D 12.5 µM | UACC-257 12.5 µM | UACC-62 24.5 µM

Cc1cc(C)nc(NS(=O)(=O)c2ccc(Nc3c4ccccc4nc4c(C(=O)NCCCN(CCO)CCO)cccc34)cc2)n1
inactive: A498 54.3 µM | A549 26.4 µM | ACHN 22.9 µM | BT-549 11.6 µM | EKVX 36.6 µM | HOP-62 17.1 µM | MDA-N 17.7 µM | NCI-H23 29.4 µM | NCI-H460 7.48 µM | OVCAR-3 30.1 µM | SF-268 16.9 µM | SK-MEL-28 14.2 µM | SK-OV-3 50.1 µM | SN12C 8.22 µM | SNB-19 9.29 µM | SR 9.75 µM | T47D 22.5 µM | UACC-257 > 100 µM | UACC-62 14 µM

COc1cc2c(c(OC)c1)C(=O)O[C@H](C)CCCC/C=C/C2
inactive: A498 39.7 µM | A549 30.6 µM | ACHN 12.5 µM | BT-549 13.4 µM | EKVX 11.7 µM | HOP-62 8.15 µM | MDA-N 8.63 µM | NCI-H23 11.2 µM | NCI-H460 11.1 µM | OVCAR-3 9.38 µM | SF-268 8.17 µM | SK-MEL-28 23.2 µM | SK-OV-3 45.9 µM | SN12C 7.14 µM | SNB-19 16.2 µM | SR > 53.5 µM | T47D 9.16 µM | UACC-257 10.9 µM | UACC-62 8.93 µM

COc1cc(C2S/C(=C/c3ccccc3)C(=O)N2c2ccc([N+](=O)[O-])cc2)cc(OC)c1OC (stereo not given)
inactive: A498 73.1 µM | A549 > 96.4 µM | ACHN > 21 µM | BT-549 44.9 µM | EKVX 39.6 µM | HOP-62 92.7 µM | MDA-N > 56.8 µM | NCI-H23 > 100 µM | NCI-H460 48 µM | OVCAR-3 > 78 µM | SF-268 > 83.9 µM | SK-MEL-28 > 100 µM | SK-OV-3 > 100 µM | SN12C > 90.6 µM | SNB-19 > 100 µM | SR 9.27 µM | T47D 40.9 µM | UACC-257 60.7 µM | UACC-62 3.91 µM

CCCCc1ccc(Nc2nc3c(ncn3C3CC(O)C(CN=[N+]=[N-])O3)c(=O)[nH]2)cc1 (stereo not given)
inactive: A498 > 100 µM | A549 > 100 µM | ACHN > 100 µM | BT-549 > 100 µM | EKVX > 100 µM | HOP-62 > 100 µM | MDA-N > 100 µM | NCI-H23 > 100 µM | NCI-H460 > 100 µM | OVCAR-3 > 100 µM | SF-268 > 100 µM | SK-MEL-28 > 100 µM | SK-OV-3 > 100 µM | SN12C > 100 µM | SNB-19 > 100 µM | SR > 100 µM | T47D 54.7 µM | UACC-257 > 100 µM | UACC-62 > 100 µM

COC1=C[C@]2(CCC(=O)O2)[C@@H]2Cc3ccccc3[C@H](O)[C@@H]2C1=O
inactive: A498 > 100 µM | A549 > 100 µM | ACHN 49.2 µM | BT-549 49.3 µM | EKVX > 100 µM | HOP-62 69.3 µM | MDA-N 15.8 µM | NCI-H23 40.3 µM | NCI-H460 85.9 µM | OVCAR-3 28.5 µM | SF-268 68.9 µM | SK-MEL-28 > 100 µM | SK-OV-3 > 100 µM | SN12C 47.6 µM | SNB-19 > 100 µM | SR 19.5 µM | T47D 13.1 µM | UACC-257 22.1 µM | UACC-62 24.8 µM

COC(=O)[C@H](CCSC)NC(=O)c1ccc(CNC(=O)/C(C)=C/c2ccccc2)cc1
inactive: A498 > 100 µM | A549 52 µM | ACHN 44.3 µM | BT-549 24.7 µM | EKVX 83.2 µM | HOP-62 21.8 µM | MDA-N 55.6 µM | NCI-H23 45.8 µM | NCI-H460 26.6 µM | OVCAR-3 60.8 µM | SF-268 25.8 µM | SK-MEL-28 24.7 µM | SK-OV-3 39.4 µM | SN12C 88.1 µM | SNB-19 24.7 µM | SR 92.7 µM | T47D 21.8 µM | UACC-257 20.7 µM | UACC-62 32.3 µM

C=C(C)C(CC=C(C)C)Cc1c(O)cc(OC)c2c1OC(c1ccc(O)cc1O)C(O)C2=O (stereo not given)
inactive: A498 16.5 µM | A549 19.5 µM | ACHN 20.4 µM | BT-549 14.9 µM | EKVX 16.3 µM | HOP-62 17.3 µM | MDA-N 14.9 µM | NCI-H23 17.9 µM | NCI-H460 15.5 µM | OVCAR-3 16.7 µM | SF-268 18.6 µM | SK-MEL-28 21.1 µM | SK-OV-3 16.8 µM | SN12C 20.5 µM | SNB-19 15.5 µM | SR > 100 µM | T47D 13.8 µM | UACC-257 17.7 µM | UACC-62 16.2 µM
